Data on 38 compounds can be found in article PMC11637378, “Optogenetic screening of MCT1 activity implicates a cluster of non-steroidal anti-inflammatory drugs (NSAIDs) as inhibitors of lactate transport” (PLOS ONE, 2024).

Series [1] has as its system parent strain (SAWy518). Kind of series: microbe, parasite or virus in culture. Also on record: species or system Saccharomyces cerevisiae SAWy518; Off-target growth counter-screen, OD600 as per cent of untreated wells, strain lacking MCT1. Conditions: 18.5 h; sheet Primary Screen - final;; off-target growth of parent strain, about 18 h. The method, then: Cells were grown for 18 hours prior to OD measurement. Fill represents manual compound grouping based on compound class or target. OD600 is reported in Tecan units. […] The drug library used in this study for the initial screen and rescreen was provided by the Small Molecule Screening Center at Princeton University, through a collaboration with Dr. Hahn Kim. […] Follow-up analysis (IC50 determinations) on library compounds was performed using compounds purchased from outside sources. […] Stocks were then diluted 100-fold into media containing 0.01 OD600 inoculation of yeast, to achieve the final concentrations listed. Where compounds were added manually (for example 10 μM AZD3965 addition) stock concentrations were diluted by a factor of 100-fold regardless of scale, resulting in a final concentration of 1% v/v DMSO which is well tolerated by yeast.

The subject of series [2] is parent strain (SAWy518).

Where a name gives a salt, the structure may show the parent alone. Read-outs that look alike come from different tables or passages of the source.

Take `CCCc1c(-c2ccc(O)cc2)nn(-c2ccc(O)cc2)c1-c1ccc(O)cc1`: the viability (as a rule, a read-out of living cells in per cent, often relative to untreated cells) at 10 µM in series [1] was determined as 99%.
Consider `O=C1CC(c2ccc(O)cc2)Oc2ccccc21` (stereo not shown), for which the viability at 10 µM in series [1] is 90.8%.
Still for that read-out and setting: with `O=C(/C=C/c1ccc(O)cc1)c1ccccc1` [4-hydroxychalcone] the figure was 104%.
Turning to `N#Cc1c(O)c2c(-c3ccc(-c4ccccc4O)cc3)csc2[nH]c1=O` [A-769662], in series [1], the viability at 10 µM came out at 102%. Also, in series [2], the OffScreen_percentage was 102.02 percentage, the Offscreen_18hr turned out to be 0.8233, the Offscreen_24hr came out at 0.9004 and the Offscreen_42hr is given as 0.9609. Further, in series [2], the Read_percentage worked out at 102.02 percentage.
For `CCOC(=O)[C@H](C)C[C@@H](Cc1ccc(-c2ccccc2)cc1)NC(=O)CCC(=O)O` [AHU377], the viability at 10 µM in series [1] was determined as 105%. In series [2], the OffScreen_percentage is listed as 104.585 percentage, the Offscreen_18hr is reported as 0.844, the Offscreen_24hr is 0.9243 and the Offscreen_42hr came out at 0.9874. The Read_percentage in series [2] was determined as 104.585 percentage.
`COc1ccc([C@@H](C)C(=O)c2ccc(O)cc2O)cc1` [Angolesin]: the viability at 10 µM in series [1] worked out at 95.7%. In series [2], the OffScreen_percentage was found to be 95.7373 percentage, the Offscreen_18hr was determined as 0.7726, the Offscreen_24hr was found to be 0.8843 and the Offscreen_42hr came to 0.9388. The Read_percentage in series [2] is given as 95.7373 percentage.
Turning to `O=c1cc(-c2ccc(O)cc2)oc2cc(O)cc(O)c12` [Apigenin], the viability at 10 µM in series [1] came out at 96.1%. For the same compound, in series [2], the OffScreen_percentage turned out to be 96.0843 percentage, the Offscreen_18hr is given as 0.7754, the Offscreen_24hr was 0.8699 and the Offscreen_42hr is given as 0.9646. Besides, in series [2], the Read_percentage is 96.0843 percentage.
With `CC(C)(C)CC(C)(C)c1ccc(OCCOCC[N+](C)(C)Cc2ccccc2)cc1` [Benzethonium], in series [1], the viability at 10 µM turned out to be 95.2%. For the same compound, in series [2], the OffScreen_percentage came to 95.2045 percentage, the Offscreen_18hr is recorded as 0.7683, the Offscreen_24hr came out at 0.892 and the Offscreen_42hr was 0.9542. In addition, in series [2], the Read_percentage stood at 95.2045 percentage.
As to `COc1ccc(-c2coc3cc(O)cc(O)c3c2=O)cc1` [Biochanin A], the viability at 10 µM in series [1] came to 98.1%. For the same compound, in series [2], the OffScreen_percentage turned out to be 98.1165 percentage, the Offscreen_18hr worked out at 0.7918, the Offscreen_24hr worked out at 0.8858 and the Offscreen_42hr was 0.9431. Also, the Read_percentage in series [2] amounted to 98.1165 percentage.
Take `O=C(/C=C/c1ccc(O)cc1)CC(=O)/C=C/c1ccc(O)cc1` [Bisdemethoxycurcumin]: in series [1], the viability at 10 µM was found to be 99.4%. In addition, in series [2], the OffScreen_percentage stood at 99.4424 percentage, the Offscreen_18hr is recorded as 0.8025, the Offscreen_24hr was 0.8965 and the Offscreen_42hr came to 0.9569. Moreover, the Read_percentage in series [2] came out at 99.4424 percentage.
On to `CCOc1nc2cccc(C(=O)OC(C)OC(=O)OC3CCCCC3)c2n1Cc1ccc(-c2ccccc2-c2nnn[nH]2)cc1` (stereo not shown) [Candesartan Cilextil], for which the viability at 10 µM in series [1] was 98.1%. In addition, in series [2], the OffScreen_percentage is listed as 98.0917 percentage, the Offscreen_18hr turned out to be 0.7916, the Offscreen_24hr worked out at 0.8922 and the Offscreen_42hr turned out to be 0.95. Further, in series [2], the Read_percentage is given as 98.0917 percentage.
Consider `CC(C(=O)O)c1ccc2c(c1)[nH]c1ccc(Cl)cc12` (stereo not shown) [Carprofen], for which the viability at 10 µM in series [1] amounted to 90.2%. In addition, in series [2], the OffScreen_percentage came to 90.223 percentage, the Offscreen_18hr was 0.7281, the Offscreen_24hr turned out to be 0.8523 and the Offscreen_42hr is given as 0.8964. For the same compound, the Read_percentage in series [2] came to 90.223 percentage.
Take `C=CC(C1=CC(=O)C(OC)=CC1=O)c1ccc(O)cc1` (stereo not shown) [DALBERGIONE, 4-METHOXY-4'-HYDROXY-]: the viability at 10 µM in series [1] stood at 102%.
As for `O=C(O)Cc1ccccc1Nc1c(Cl)cccc1Cl` [Diclofenac], the viability at 10 µM in series [1] stood at 101%.
The same measure, in the same setting: with `O=C(O)c1ccccc1-c1c2cc(I)c(=O)c(I)c-2oc2c(I)c(O)c(I)cc12` [Erythrosine] the figure was 101%; with `CC(Cc1ccc(O)c(O)c1)C(C)Cc1ccc(O)c(O)c1` (stereo not shown) [Nordihydroguaiaretic_acid], 101%; with `CN1C(C(=O)Nc2ccccn2)=C(O)c2ccccc2S1(=O)=O` [Piroxicam], 95.2%.
Turning to `O=c1c(O)c(-c2ccc(O)c(O)c2)oc2cc(O)cc(O)c12` [Quercetin], the viability at 10 µM in series [1] stood at 96.1%.
In the case of `CS(=O)(=O)c1ccc(C2=C(c3ccccc3)C(=O)OC2)cc1` [Rofecoxib], the viability at 10 µM in series [1] was 104%.
As for `CC1=C(CC(=O)O)c2cc(F)ccc2/C1=C\c1ccc([S+](C)[O-])cc1` (stereo not shown) [Sulindac], in series [1], the viability at 10 µM was 103%.
On to `C=CC[C@@H]1/C=C(\C)C[C@H](C)C[C@H](OC)[C@H]2O[C@@](O)(C(=O)C(=O)N3CCCC[C@H]3C(=O)O[C@H](/C(C)=C/[C@@H]3CC[C@@H](O)[C@H](OC)C3)[C@H](C)[C@@H](O)CC1=O)[C@H](C)C[C@@H]2OC` [TACROLIMUS], for which, in series [2], the Offscreen_18hr is 0.727, the Offscreen_24hr was 0.8973 and the Offscreen_42hr is reported as 0.9661.
Consider `O=C1NC(=O)/C(=C\c2cccc(C(F)(F)F)c2)S1` [TCS PIM-1 4a], for which, in series [2], the Offscreen_18hr worked out at 0.5379, the Offscreen_24hr stood at 0.7077 and the Offscreen_42hr is 0.7912.
The like results for `O=C(O)Cc1cc(I)c(Oc2ccc(O)c(I)c2)c(I)c1` [TIRATRICOL] were, in that order, 0.6885, 0.8174 and 0.855.
`CCCCCCC(=O)OC1CC(C)(C)NC(C)(C)C1.Cl` [TMPH hydrochloride, reference compound]: in series [2], the Offtarget result is on record as “NO” and the Offtarget_sub is 0.4142.
Take `CC(C)(C)C(=O)C(Oc1ccc(Cl)cc1)n1cncn1` (stereo not shown) [TRIADIMEFON]: in series [2], the Offscreen_18hr amounted to 0.0626, the Offscreen_24hr amounted to 0.0684 and the Offscreen_42hr is recorded as 0.2136.
The like results for `CSc1nc2cc(Cl)c(Oc3cccc(Cl)c3Cl)cc2[nH]1` [TRICLABENDAZOLE] were, in that order, 0.3546, 0.5896 and 0.8341.
Regarding `CO[C@H]1C[C@@H]2CC[C@@H](C)[C@@](O)(O2)C(=O)C(=O)N2CCCC[C@H]2C(=O)O[C@H]([C@H](C)C[C@@H]2CC[C@@H](OC(=O)C(C)(CO)CO)[C@H](OC)C2)CC(=O)[C@H](C)/C=C(\C)[C@@H](O)[C@@H](OC)C(=O)[C@H](C)C[C@H](C)/C=C/C=C/C=C/1C` [Temsirolimus], in series [2], the Offscreen_18hr came out at 0.0544, the Offscreen_24hr stood at 0.0562 and the Offscreen_42hr is 0.0968.
The like results for `CN(C/C=C/C#CC(C)(C)C)Cc1cccc2ccccc12` [Terbinafine hydrochloride] were, in that order, 0.3316, 0.5468 and 0.9146.
For `CCN(CC)C(=S)SSC(=S)N(CC)CC` [Tetraethylthiuram disulfide] the same measures were 0.0416, 0.0418 and 0.0415.
For `Oc1cc(Cl)ccc1Oc1ccc(Cl)cc1Cl` [Triclosan] the same measures were 0.1779, 0.3017 and 0.8343.
On to `COc1ccc2c(c1)CC[C@@H]1[C@@H]2CC[C@]2(C)[C@H](NCCCCCCN3C(=O)C=CC3=O)CC[C@@H]12` [U 73122], for which, in series [2], the Offscreen_18hr turned out to be 0.5917, the Offscreen_24hr came to 0.8296 and the Offscreen_42hr came out at 0.9704.
For `CCC[C@H](NC(=O)/C(C#N)=C/c1cccc(Br)n1)c1ccccc1` [WP1130] the same measures were 0.6544, 0.8363 and 0.9253.
With `COCCN1C2=C(C(=O)c3ccccc3C2=O)N(Cc2cnccn2)C1C` (stereo not shown) [YM155], the viability at 10 µM in series [1] worked out at 104%.
`CC(C)N(CCC(=O)c1ccc2ccccc2c1)Cc1ccccc1.Cl` [ZM 39923 HCl]: in series [2], the Offscreen_18hr is listed as 0.0402, the Offscreen_24hr came out at 0.0403 and the Offscreen_42hr is listed as 0.0401.
With `O=c1[nH]c(=O)c2ccccc2o1` [pu-sc-0002 H19], in series [2], the 18 hours came to 0.7281, the 24 hours is 0.8523 and the 48 hours came to 0.8964.
For Erythrosine, in series [2], the OffScreen_percentage came out at 100.818 percentage, the Offscreen_18hr came out at 0.8136, the Offscreen_24hr came to 0.8985 and the Offscreen_42hr stood at 0.9466. Also, the Read_percentage in series [2] is on record as 100.818 percentage.
JAK3 Inhibitor VI: in series [2] (parent strain growth reading, 18 hr), the Offscreen_18hr was determined as 0.0531. Also, in series [2] (parent strain growth reading, 24 hr), the Offscreen_24hr turned out to be 0.0592. In addition, the Offscreen_42hr in series [2] (parent strain growth reading, 42 hr) was determined as 0.0892.
Turning to OXYCLOZANIDE, in series [2], the Offscreen_18hr turned out to be 0.5071, the Offscreen_24hr is 0.6783 and the Offscreen_42hr is listed as 0.7815.
